# Reference: PMC5036131, “Fragment-based discovery of a new family of non-peptidic small-molecule cyclophilin inhibitors with potent antiviral activities” (Nature Communications, 2016)
# Assays:
# CYP2C8 = target: T1, CYP2C8 (Homo sapiens, UniProt P10632); experiment: Cytochrome P450 enzyme inhibition assay, CYP2C8; type: in vitro ADME; design: incubated with human hepatic microsomal fractions and NADPH; from tissue; host or cells: human hepatic microsomal fractions; settings: human hepatic microsomal fractions, up to 25 μM
# T1 sequence (P10632 1-490): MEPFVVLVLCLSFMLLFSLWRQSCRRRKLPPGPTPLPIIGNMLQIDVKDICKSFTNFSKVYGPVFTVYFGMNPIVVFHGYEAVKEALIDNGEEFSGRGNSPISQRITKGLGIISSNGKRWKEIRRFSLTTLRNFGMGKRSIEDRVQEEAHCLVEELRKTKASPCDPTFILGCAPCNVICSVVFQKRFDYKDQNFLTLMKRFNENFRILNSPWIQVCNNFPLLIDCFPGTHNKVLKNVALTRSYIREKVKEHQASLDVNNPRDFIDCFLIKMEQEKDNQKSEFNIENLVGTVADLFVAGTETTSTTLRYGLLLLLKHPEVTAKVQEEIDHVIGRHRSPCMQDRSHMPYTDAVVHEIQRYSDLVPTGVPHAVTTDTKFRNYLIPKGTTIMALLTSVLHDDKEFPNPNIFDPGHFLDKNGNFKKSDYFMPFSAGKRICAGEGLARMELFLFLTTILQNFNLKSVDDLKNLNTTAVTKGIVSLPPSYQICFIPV
# Experimental: (§1) Up to 25 μM of compounds 29 and 30 was incubated with human hepatic microsomal fractions and NADPH in the presence of individual probe substrates. All assays were designed so that conditions were linear with respect to time and protein concentration. Substrates were present at concentrations equal to or lower than their respective Km values. Enzyme selective products were determined by fluorometry (ethoxyresorufin O-deethylase) or by specific LC-MS/MS assays. Relative enzyme activities were determined by comparison with those assayed with DMSO vehicle instead of inhibitor. IC50 values were calculated by nonlinear curve fitting using a sigmoidal model. Positive control inhibitors for each enzyme were tested in parallel.
# Chemical stability, 24 h = type: physicochemical; settings: 37 °C, remaining
# [1] = Cell culture medium binding, equilibrium dialysis; type: in vitro ADME; settings: 2 μM, 37 °C, 3 h dialysis
# Experimental: (§2) The extent of binding to pooled human plasma and to cell culture medium containing 10% fetal bovine serum was determined by equilibrium dialysis against isotonic phosphate buffer. Equilibrium dialysis was conducted at 37 °C with initial concentrations of compounds of 2 μM in the non-buffer matrix. A 3 h dialysis time was used for equilibration. Following dialysis, plasma samples were drained into pre-weighed polypropylene tubes containing buffer and buffer samples were drained into pre-weighed tubes containing blank plasma. Post-dialysis plasma and buffer weights were measured and recorded for concentration and recovery calculations. After precipitation and centrifugation, LC-MS/MS assays were used for the analysis of each of the protein/phosphate buffer-mixed matrices. Relative binding to human plasma and cell culture medium was determined in a similar manner, except that the two matrices were dialysed against each other directly and the compound was spiked into both matrices. After equilibration, the plasma sample was diluted with blank cell culture medium and the cell culture medium diluted with blank plasma.
# CYP2C9 = CYP2C9 (Homo sapiens, UniProt P11712); experiment: Cytochrome P450 enzyme inhibition assay, CYP2C9; type: in vitro ADME; design: incubated with human hepatic microsomal fractions and NADPH; from tissue; host or cells: human hepatic microsomal fractions; settings: human hepatic microsomal fractions, up to 25 μM
# Experimental: as §1
# Caco-2 cells = experiment: Caco-2 cell permeability; type: in vitro ADME; settings: Caco-2 monolayers, 10 μM
# Experimental: Permeability and efflux potential were determined using confluent (≥21 day) monolayers of Caco-2 cells grown on transwell filters. Compounds were added to donor wells at a target concentration of 10 μM and rates of appearance in receiver wells (containing 1% BSA to maintain sink conditions) were determined by liquid chromatography coupled to tandem mass spectrometry (LC-MS/MS).
# [2] = Human plasma protein binding, equilibrium dialysis; type: in vitro ADME; settings: 2 μM, 37 °C, 3 h dialysis
# Experimental: as §2
# MRC5 cells = experiment: Cellular toxicity in MRC5 cells; settings: read-out: MRC5 cells CC50; MRC5 cells
# MT4 cells = experiment: Cytotoxicity in uninfected MT4 cells; settings: read-out: MT4 cells CC50
# CYP2B6 = target: T2, CYP2B6 (Homo sapiens, UniProt P20813); experiment: Cytochrome P450 enzyme inhibition assay, CYP2B6; type: in vitro ADME; design: incubated with human hepatic microsomal fractions and NADPH; from tissue; host or cells: human hepatic microsomal fractions; settings: human hepatic microsomal fractions, up to 25 μM
# T2 sequence (P20813 1-491): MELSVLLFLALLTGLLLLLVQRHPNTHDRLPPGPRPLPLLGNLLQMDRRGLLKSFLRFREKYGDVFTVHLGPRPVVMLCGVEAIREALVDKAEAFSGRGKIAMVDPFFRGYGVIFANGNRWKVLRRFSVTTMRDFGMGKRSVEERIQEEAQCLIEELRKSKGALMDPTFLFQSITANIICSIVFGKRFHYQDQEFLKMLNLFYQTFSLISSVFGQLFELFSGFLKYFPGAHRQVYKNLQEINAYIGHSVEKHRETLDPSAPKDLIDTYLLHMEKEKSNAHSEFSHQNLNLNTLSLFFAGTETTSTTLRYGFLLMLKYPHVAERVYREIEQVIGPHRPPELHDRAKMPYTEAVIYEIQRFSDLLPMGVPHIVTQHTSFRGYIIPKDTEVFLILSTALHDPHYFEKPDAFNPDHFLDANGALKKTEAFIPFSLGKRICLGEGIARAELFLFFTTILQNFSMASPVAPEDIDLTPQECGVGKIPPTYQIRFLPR
# Experimental: as §1
# Chain of CYP2C9 (P11712 whole entry): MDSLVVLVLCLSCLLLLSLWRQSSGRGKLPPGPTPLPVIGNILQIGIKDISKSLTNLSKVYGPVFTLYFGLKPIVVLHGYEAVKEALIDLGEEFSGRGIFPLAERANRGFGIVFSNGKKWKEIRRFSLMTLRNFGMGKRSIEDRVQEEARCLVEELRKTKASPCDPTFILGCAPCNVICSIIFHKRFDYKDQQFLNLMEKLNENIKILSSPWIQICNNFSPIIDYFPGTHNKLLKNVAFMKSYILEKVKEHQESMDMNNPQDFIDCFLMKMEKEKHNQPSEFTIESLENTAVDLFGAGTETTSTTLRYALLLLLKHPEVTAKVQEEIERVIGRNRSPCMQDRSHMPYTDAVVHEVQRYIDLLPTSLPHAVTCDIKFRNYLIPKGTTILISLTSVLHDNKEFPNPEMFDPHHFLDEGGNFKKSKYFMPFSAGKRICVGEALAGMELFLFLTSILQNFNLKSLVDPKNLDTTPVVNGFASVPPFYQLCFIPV
structure (smiles),measurement,setting,value
CSCCC(NC(=O)NCc1ccc(N)cc1)C(=O)N1CCCC1c1ccccc1SC.O=C(O)C(F)(F)F (centres unmarked) [Compound 30],IC50,CYP2C8,9.4 µM
same,"Inhibition of cytochrome P450 activity, IC50 CYP2C8",CYP2C8,moderate inhibitors
same,24-hour stability HCl (pH 1.0),"Chemical stability, 24 h",92%
same,24-hour stability PBS (pH 7.4),"Chemical stability, 24 h",100%
same,24-hour stability PBS (pH 7.4),"Chemical stability, 24 h; listed as compound 30",not degraded
same,Cell culture medium (CCM) binding Unbound,[1],23.2%
same,IC50,CYP2C9,> 25 µM
same,"Inhibition of cytochrome P450 activity, IC50 CYP2C9",CYP2C9,Neither compound 29 nor compound 30 significantly inhibited
same,Apparent permeability Forward,Caco-2 cells,19.5 ×10⁻⁶ cm/s
same,Apparent permeability Forward,Caco-2 cells; listed as compound 30,high
same,Apparent permeability Reverse,Caco-2 cells; reverse,39.7 ×10⁻⁶ cm/s
same,Human plasma binding Bound,[2],85.1%
same,Human plasma binding Unbound,[2],14.9%
same,CC50,MRC5 cells,> 100 µM
same,CC50,MT4 cells,> 53 µM
same,IC50,CYP2B6,> 25 µM
same,"Inhibition of cytochrome P450 activity, IC50 CYP2B6",CYP2B6,Neither compound 29 nor compound 30 significantly inhibited
